Experimental data taken from patent publication US12630492B2, “Cannabinoid derivatives” (CANOPY GROWTH CORPORATION, priority 2019, dated 2026).

Tests used:
human CB1 receptor = biological target: T1, human CB1 receptor (Homo sapiens, UniProt P21554); test: CB1 radioligand competitive binding assay ([3H]CP 55,940 displacement); conditions: for IC50: [3H]CP 55,940 displacement, membranes of CHO-K1 cells expressing human CB1 receptor, read-out: CB1 IC50
T1 construct: host or cells: CHO-K1 (Chinese hamster ovary) cells, stably transfected; membranes prepared in house

human CB2 receptor = biological target: T2, human CB2 receptor (Homo sapiens, UniProt P34972); test: CB2 radioligand competitive binding assay ([3H]CP 55,940 displacement); conditions: for IC50: [3H]CP 55,940 displacement, membranes of CHO-K1 cells expressing human CB2 receptor, read-out: CB2 IC50; for Selectivity CB2: fold difference between CB1 and CB2 binding, printed in column of receptor with higher affinity, 1.00 in both = same affinity
T2 construct: host or cells: CHO-K1 (Chinese hamster ovary) cells, stably transfected; membranes prepared in house
T2 sequence (P34972 whole entry): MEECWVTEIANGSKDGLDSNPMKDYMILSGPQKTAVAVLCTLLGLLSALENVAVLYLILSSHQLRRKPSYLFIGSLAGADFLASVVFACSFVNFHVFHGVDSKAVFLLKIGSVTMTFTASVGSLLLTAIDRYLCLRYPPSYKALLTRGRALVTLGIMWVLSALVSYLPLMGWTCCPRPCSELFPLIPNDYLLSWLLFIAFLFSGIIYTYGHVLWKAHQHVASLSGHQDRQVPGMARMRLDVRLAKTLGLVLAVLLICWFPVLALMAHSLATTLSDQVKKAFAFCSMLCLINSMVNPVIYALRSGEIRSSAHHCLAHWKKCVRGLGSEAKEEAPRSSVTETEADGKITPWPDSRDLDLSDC

T1 sequence (P21554 whole entry): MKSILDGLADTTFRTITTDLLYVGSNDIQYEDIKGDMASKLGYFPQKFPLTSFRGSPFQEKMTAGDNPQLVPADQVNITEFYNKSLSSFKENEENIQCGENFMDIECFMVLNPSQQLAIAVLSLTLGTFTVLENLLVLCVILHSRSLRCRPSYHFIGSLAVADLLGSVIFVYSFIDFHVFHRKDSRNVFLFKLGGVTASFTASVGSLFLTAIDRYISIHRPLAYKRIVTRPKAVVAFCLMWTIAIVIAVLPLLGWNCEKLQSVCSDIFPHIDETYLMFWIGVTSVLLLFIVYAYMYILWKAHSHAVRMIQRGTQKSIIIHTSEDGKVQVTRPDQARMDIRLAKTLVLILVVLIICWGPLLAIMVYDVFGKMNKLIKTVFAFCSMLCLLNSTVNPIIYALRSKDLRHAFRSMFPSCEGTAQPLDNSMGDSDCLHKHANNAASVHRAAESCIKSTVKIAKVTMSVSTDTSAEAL

Row | SMILES | IC50 (human CB1 receptor) | IC50 (human CB2 receptor) | Selectivity CB2 (human CB2 receptor) | Selectivity CB1 (human CB1 receptor; fold difference between CB1 and CB2 binding, printed in column of receptor with higher affinity, 1.00 in both = same affinity)
1 | CCCCCc1cc(OCOCCOC)c(-c2cccc(C)c2)c(OCOCCOC)c1 [2′a, 2,6-bis((2-methoxyethoxy)methoxy)-3′-methyl-4-pentyl-1,1′-biphenyl] | > 10000 nM | 50 to 990 nM | 19.73 | 
2 | CCCCCc1cc(OCOCCOC)c(C2C=C(C)CCC2)c(OCOCCOC)c1 (centres unmarked) [2′c, 2′,6′-bis((2-methoxyethoxy)methoxy)-5-methyl-4′-pentyl-1,2,3,4-tetarhydro-1,1′-biphenyl] | 50 to 990 nM | < 50 nM | 6.38 | 
3 | C=C(C)C1CCC(C)=CC1c1c(OCOCCOC)cc(CCCCC)cc1OCOCCOC (centres unmarked) [2′d, 2′,6′-bis((2-methoxyethoxy)methoxy)-5-methyl-4′-pentyl-2-(prop-1-en-2-yl)-1,2,3,4-tetrahydro-1,1′-biphenyl] | 1000 to 9990 nM | 50 to 990 nM | 2.50 | 
4 | CCCCCc1cc(OCOC(=O)C(C)(C)C)c(-c2cccc(C)c2)c(OCOC(=O)C(C)(C)C)c1 [8′a, [3-(2,2-dimethylpropanoyloxymethoxy)-2-(m-tolyl)-5-pentyl-phenoxy]methyl 2,2-dimethylpropanoate] | 50 to 990 nM | 50 to 990 nM | 7.14 | 
5 | CCCCCc1cc(OCOC(=O)C(C)(C)C)c(C2C=C(C)CCC2)c(OCOC(=O)C(C)(C)C)c1 (centres unmarked) [8′c, ((5′-methyl-4-pentyl-1′,2′,3′,4′-tetrahydro-[1,1′-biphenyl]-2,6-diyl)bis(oxy))bis(methylene)bis(2,2-dimethylpropanoate)] | 50 to 990 nM | < 50 nM | 6.38 | 
6 | C=C(C)C1CCC(C)=CC1c1c(OCOC(=O)C(C)(C)C)cc(CCCCC)cc1OCOC(=O)C(C)(C)C (centres unmarked) [8′d, ((5′-methyl-4-pentyl-2′-(prop-1-en-2-yl)-1′,2′,3′,4′-tetrahydro-[1,1′-biphenyl]-2,6-diyl)bis(oxy))bis(methylene) bis(2,2-dimethylpropanoate)] | 1000 to 9990 nM | 1000 to 9990 nM | 2.00 | 
7 | CCCCCc1cc(OCN(C(=O)OC)c2ccccc2)c(-c2cccc(C)c2)c(OCN(C(=O)OC)c2ccccc2)c1 [14′a, dimethyl (((3′-methyl-4-pentyl-[1,1′-biphenyl]-2,6-diyl)bis(oxy))bis(methylene))bis(phenylcarbamate)] | 50 to 990 nM | 50 to 990 nM | 4.40 | 
8 | CCCCCc1cc(OCN(C(=O)OC)c2ccccc2)c(C2C=C(C)CCC2)c(OCN(C(=O)OC)c2ccccc2)c1 (centres unmarked) [14′c, dimethyl (((5′-methyl-4-pentyl-1′,2′,3′,4′-tetrahydro-[1,1′-biphenyl]-2,6-diyl)bis(oxy))bis(methylene))bis(phenylcarbamate)] | 1000 to 9990 nM | 50 to 990 nM | 62.50 | 
9 | CCCCCc1cc(OCOCC)c(-c2cccc(C)c2)c(OCOCC)c1 [17′a, 2,6-bis(ethoxymethoxy)-3′-methyl-4-pentyl-1,1′-biphenyl] | 1000 to 9990 nM | 50 to 990 nM | 8.97 | 
10 | CCCCCc1cc(OCOCC)c(C2C=C(C)CCC2)c(OCOCC)c1 (centres unmarked) [17′c, 2′,6′-bis(ethoxymethoxy)-5-methyl-4′-pentyl-1,2,3,4-tetrahydro-1,1′-biphenyl] | 1000 to 9990 nM |  |  | 
11 | C=C(C)C1CCC(C)=CC1c1c(OCOCC)cc(CCCCC)cc1OCOCC (centres unmarked) [17′d, 2′,6′-bis(ethoxymethoxy)-5-methyl-4′-pentyl-2-(prop-1-en-2-yl)-1,2,3,4-tetrahydro-1,1′-biphenyl] | 1000 to 9990 nM | 50 to 990 nM | 3.03 | 
12 | C=C(C)C1CCC(C)=CC1c1c(OCOC2CCCCC2)cc(CCCCC)cc1OCOC1CCCCC1 (centres unmarked) [18′d, 2′,6′-bis((cyclohexyloxy)methoxy)-5-methyl-4′-pentyl-2-(prop-1-en-2-yl)-1,2,3,4-tetrahydro-1,1′-biphenyl] | > 10000 nM | > 10000 nM | 1.00 | 1.00
